Blank lines part the entries; values can stand above or below the compound they belong to. Calls of active or inactive are those of the source. The calls are words filed in the database; no cut-off is given here.
Columns and labels:
[1] = biological target: T1, Bifunctional epoxide hydrolase 2 (Mus musculus, UniProt P34914); test: Inhibition of mouse recombinant sEH using fluorogenic substrate
T1 sequence (P34914 whole entry): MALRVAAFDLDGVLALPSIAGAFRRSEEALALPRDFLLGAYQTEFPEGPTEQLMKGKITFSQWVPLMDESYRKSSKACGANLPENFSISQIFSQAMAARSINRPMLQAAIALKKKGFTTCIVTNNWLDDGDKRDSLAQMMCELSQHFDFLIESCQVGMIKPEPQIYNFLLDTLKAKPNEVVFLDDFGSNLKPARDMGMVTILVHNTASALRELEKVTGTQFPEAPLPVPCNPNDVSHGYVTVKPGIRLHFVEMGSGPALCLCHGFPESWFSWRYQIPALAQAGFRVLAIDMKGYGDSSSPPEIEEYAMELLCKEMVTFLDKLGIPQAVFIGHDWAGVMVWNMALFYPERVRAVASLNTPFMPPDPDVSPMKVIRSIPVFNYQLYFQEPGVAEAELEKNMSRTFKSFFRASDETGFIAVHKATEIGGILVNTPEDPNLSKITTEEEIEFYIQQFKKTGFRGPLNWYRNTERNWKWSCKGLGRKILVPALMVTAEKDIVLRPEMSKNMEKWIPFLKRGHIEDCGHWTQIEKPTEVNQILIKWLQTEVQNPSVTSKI

HepG2 = test: Cytotoxicity against human HepG2 cells assessed as cell viability at 1 uM incubated for 24 hrs by MTT assay; details: HepG2, 24 h, read-out: Activity
[2] = Chemical stability of compound in cell culture medium assessed as parent compound remaining measured for 24 hrs by LC-MS analysis; assay type: physicochemical; details: read-out: Stability
[3] = Half life in male CD-1 mouse at 10 mg/kg, ip measured up to 24 hrs by LC-MS/MS analysis; assay type: ADME, organism-based; details: in vivo
[4] = Tmax in male CD-1 mouse at 10 mg/kg, ip measured up to 24 hrs by LC-MS/MS analysis; assay type: ADME, organism-based; details: in vivo
[5] = Cmax in male CD-1 mouse at 10 mg/kg, ip measured up to 24 hrs by LC-MS/MS analysis; assay type: ADME, organism-based; details: in vivo
[6] = AUC (0 to infinity) in male CD-1 mouse at 10 mg/kg, ip measured up to 24 hrs by LC-MS/MS analysis; assay type: ADME, organism-based; details: in vivo
[7] = MRT (0 to infinity) in male CD-1 mouse at 10 mg/kg, ip measured up to 24 hrs by LC-MS/MS analysis; assay type: ADME, organism-based; details: in vivo
[8] = biological target: Eukaryotic translation initiation factor 2 subunit 1 (Homo sapiens) (UniProt P05198); test: Inhibition of eIF2alpha phosphorylation in HEK293T cells at 100 to 1000 nM pretreated with compound for 12 hrs followed by thapsigargin addition and measured after 24 hrs by immunoblotting analysis; assay type: cell-based; details: dose 100-1000 nM, time 36.0 hrs
HEK293T [9] = test: Inhibition of IRE1alpha phosphorylation in HEK293T cells at 100 to 1000 nM pretreated with compound for 12 hrs followed by thapsigargin addition and measured after 24 hrs by immunoblotting analysis; assay type: cell-based; details: Homo sapiens, dose 100-1000 nM, time 36.0 hrs
[10] = Chemical stability of compound in cell culture medium assessed as half life measured for 24 hrs by LC-MS analysis; assay type: physicochemical
[11] = Metabolic stability in mouse liver microsome assessed as half life incubated for 5 to 45 mins in presence of NADPH by UPLC-MS/MS analysis; assay type: ADME; details: liver microsomes, time 5-45 min
[12] = Metabolic stability in mouse liver microsome assessed as intrinsic clearance incubated for 5 to 45 mins in presence of NADPH by UPLC-MS/MS analysis; assay type: ADME; details: liver microsomes, time 5-45 min, read-out: CLH
[13] = Metabolic stability in mouse liver microsome assessed as parent compound remaining incubated for 5 to 45 mins in absence of NADPH by UPLC-MS/MS analysis; assay type: ADME; details: microsomes, time 5-45 min
[14] = biological target: T2, Eukaryotic translation initiation factor 2-alpha kinase 3 (Homo sapiens) (UniProt Q9NZJ5); test: Inhibition of PERK phosphorylation in HEK293T cells at 100 to 1000 nM pretreated with compound for 12 hrs followed by thapsigargin addition and measured after 24 hrs by immunoblotting analysis; assay type: cell-based; details: dose 100-1000 nM, time 36.0 hrs
T2 sequence (whole entry): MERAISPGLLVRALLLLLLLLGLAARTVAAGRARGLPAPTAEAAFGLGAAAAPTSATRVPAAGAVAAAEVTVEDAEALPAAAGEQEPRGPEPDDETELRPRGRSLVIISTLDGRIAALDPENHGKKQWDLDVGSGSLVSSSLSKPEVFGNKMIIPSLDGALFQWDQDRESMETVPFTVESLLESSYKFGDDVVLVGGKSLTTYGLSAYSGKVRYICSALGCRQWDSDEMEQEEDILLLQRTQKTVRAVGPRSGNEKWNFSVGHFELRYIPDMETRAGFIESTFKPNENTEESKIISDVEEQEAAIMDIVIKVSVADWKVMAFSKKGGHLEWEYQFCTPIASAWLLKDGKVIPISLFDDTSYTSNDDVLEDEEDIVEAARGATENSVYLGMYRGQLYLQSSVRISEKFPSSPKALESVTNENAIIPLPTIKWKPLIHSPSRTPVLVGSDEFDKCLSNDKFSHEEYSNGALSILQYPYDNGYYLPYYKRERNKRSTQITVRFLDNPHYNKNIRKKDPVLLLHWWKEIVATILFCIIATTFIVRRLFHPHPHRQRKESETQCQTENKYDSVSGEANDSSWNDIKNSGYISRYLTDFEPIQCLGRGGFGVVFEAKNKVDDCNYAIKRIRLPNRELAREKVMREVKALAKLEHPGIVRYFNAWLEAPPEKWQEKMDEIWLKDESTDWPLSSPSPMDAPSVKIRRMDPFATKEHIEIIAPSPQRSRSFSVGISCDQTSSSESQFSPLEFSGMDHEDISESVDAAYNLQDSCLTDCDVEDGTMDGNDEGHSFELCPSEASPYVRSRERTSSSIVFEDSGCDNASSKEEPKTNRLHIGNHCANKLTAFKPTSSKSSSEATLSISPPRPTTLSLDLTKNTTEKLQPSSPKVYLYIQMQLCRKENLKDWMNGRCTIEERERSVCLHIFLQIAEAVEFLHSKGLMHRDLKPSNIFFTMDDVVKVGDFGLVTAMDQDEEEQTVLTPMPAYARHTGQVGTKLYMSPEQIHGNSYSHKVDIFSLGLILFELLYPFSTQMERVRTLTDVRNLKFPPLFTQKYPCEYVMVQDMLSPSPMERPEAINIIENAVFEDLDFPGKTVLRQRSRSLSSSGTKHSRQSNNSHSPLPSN

HEK-293T [15] = test: Induction of apoptosis in HEK293T cells assessed as chromatin condensation by measuring improvement in cell survival pretreated with compound for 12 hrs followed by thapsigargin addition and measured after 24 hrs by Hoechst33258 staining based analysis; assay type: functional; details: Homo sapiens, time 36.0 hrs
HEK-293T [16] = test: Induction of apoptosis in HEK293T cells assessed as reduction in thapsigargin-induced cell death pretreated with compound for 12 hrs followed by thapsigargin addition and measured after 24 hrs by propidium iodide staining based analysis; assay type: functional; details: Homo sapiens, time 36.0 hrs
[17] = biological target: T3, Protein cereblon/Bifunctional epoxide hydrolase 2 (Mus musculus) (UniProt P34914+Q8C7D2); test: In-vivo PROTAC activity at sEH/CRBN in Male C57BL/6J mouse assessed as reduction in sEH level in liver at 12 mg/kg, ip measured after 24 hrs by immunoblotting analysis; assay type: functional, organism-based
[18] = biological target: T3, Protein cereblon/Bifunctional epoxide hydrolase 2 (Mus musculus); test: In-vivo PROTAC activity at sEH/CRBN in Male C57BL/6J mouse assessed as reduction in sEH level in BAT at 12 mg/kg, ip measured after 24 hrs by immunoblotting analysis; assay type: functional, organism-based
HEK293T [19] = test: Inhibition of IRE1alpha phosphorylation in HEK293T cells at 100 nM pretreated with compound for 12 hrs followed by thapsigargin addition and measured after 24 hrs by immunoblotting analysis; assay type: cell-based; details: Homo sapiens, time 36.0 hrs
[20] = biological target: T2, Eukaryotic translation initiation factor 2-alpha kinase 3 (Homo sapiens); test: Inhibition of PERK phosphorylation in HEK293T cells at 100 nM pretreated with compound for 12 hrs followed by thapsigargin addition and measured after 24 hrs by immunoblotting analysis; assay type: cell-based; details: time 36.0 hrs
[21] = biological target: Eukaryotic translation initiation factor 2 subunit 1 (Homo sapiens) (UniProt P05198); test: Inhibition of eIF2alpha phosphorylation in HEK293T cells at 100 nM pretreated with compound for 12 hrs followed by thapsigargin addition and measured after 24 hrs by immunoblotting analysis; assay type: cell-based; details: time 36.0 hrs
[22] = biological target: Protein cereblon/Bifunctional epoxide hydrolase 2 (Homo sapiens, UniProt P34913+Q96SW2); test: PROTAC activity at sEH/CRBN in human HepG2 cells assessed as induction of sEH degradation measured for 24 hrs by immunoblot analysis; assay type: cell-based
[23] = Chemical stability of compound in cell culture medium assessed as degradation measured after 24 hrs by LC-MS analysis; assay type: physicochemical; details: read-out: Drug degradation

Chain of Eukaryotic translation initiation factor 2 subunit 1 (Homo sapiens) (P05198 whole entry): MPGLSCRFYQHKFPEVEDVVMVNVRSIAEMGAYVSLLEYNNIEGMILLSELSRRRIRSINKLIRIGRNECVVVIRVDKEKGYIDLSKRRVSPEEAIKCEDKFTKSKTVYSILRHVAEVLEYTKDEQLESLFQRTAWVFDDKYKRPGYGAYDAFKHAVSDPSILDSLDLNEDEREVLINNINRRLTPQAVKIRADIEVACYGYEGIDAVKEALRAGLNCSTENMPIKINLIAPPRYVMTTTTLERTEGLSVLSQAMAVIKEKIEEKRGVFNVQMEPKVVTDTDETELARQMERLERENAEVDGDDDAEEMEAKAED
T3 sequence (Q8C7D2 whole entry, looked up, one chain of several): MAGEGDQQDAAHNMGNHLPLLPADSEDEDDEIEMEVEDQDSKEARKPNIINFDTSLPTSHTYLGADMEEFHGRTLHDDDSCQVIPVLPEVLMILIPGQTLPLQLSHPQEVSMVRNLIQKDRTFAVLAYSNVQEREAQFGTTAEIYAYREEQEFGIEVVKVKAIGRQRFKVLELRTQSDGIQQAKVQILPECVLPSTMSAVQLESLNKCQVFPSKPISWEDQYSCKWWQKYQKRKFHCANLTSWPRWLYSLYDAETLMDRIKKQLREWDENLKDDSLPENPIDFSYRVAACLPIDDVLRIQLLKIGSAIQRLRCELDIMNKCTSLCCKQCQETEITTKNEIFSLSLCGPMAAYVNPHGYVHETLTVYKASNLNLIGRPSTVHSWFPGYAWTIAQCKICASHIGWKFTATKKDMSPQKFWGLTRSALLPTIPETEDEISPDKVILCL
Chain of Protein cereblon/Bifunctional epoxide hydrolase 2 (P34913 whole entry): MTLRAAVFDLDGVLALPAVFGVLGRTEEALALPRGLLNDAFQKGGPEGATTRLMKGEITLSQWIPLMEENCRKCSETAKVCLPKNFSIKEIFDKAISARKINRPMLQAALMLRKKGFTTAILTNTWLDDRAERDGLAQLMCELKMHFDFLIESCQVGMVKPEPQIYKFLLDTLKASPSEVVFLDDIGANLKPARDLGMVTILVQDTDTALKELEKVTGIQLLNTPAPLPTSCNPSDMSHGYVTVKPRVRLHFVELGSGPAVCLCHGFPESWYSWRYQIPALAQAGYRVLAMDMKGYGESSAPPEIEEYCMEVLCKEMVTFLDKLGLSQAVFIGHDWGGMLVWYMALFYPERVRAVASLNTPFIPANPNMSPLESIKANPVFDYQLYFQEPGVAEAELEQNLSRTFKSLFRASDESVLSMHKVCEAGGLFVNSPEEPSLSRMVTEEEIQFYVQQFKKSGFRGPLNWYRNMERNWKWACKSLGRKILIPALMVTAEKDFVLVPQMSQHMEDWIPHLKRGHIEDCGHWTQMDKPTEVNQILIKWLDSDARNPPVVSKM
Chain of Protein cereblon/Bifunctional epoxide hydrolase 2 (Q96SW2 whole entry): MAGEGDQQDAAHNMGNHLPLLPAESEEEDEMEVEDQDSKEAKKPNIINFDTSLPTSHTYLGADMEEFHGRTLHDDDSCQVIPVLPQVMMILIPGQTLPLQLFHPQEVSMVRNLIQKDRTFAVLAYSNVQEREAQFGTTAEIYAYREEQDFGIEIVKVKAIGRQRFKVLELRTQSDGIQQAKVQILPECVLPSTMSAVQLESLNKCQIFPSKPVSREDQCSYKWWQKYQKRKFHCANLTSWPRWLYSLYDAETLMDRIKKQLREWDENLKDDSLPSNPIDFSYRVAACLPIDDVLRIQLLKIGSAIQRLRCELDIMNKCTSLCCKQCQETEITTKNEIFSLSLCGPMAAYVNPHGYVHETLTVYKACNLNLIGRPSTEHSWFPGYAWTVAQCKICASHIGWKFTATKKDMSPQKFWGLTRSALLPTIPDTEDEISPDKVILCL

SMILES: O=C1CCC(N2Cc3cc(N4CCN(C(=O)CCCCCCCCNC(=O)c5ccc(O[C@H]6CC[C@H](NC(=O)Nc7ccc(OC(F)(F)F)cc7)CC6)cc5)CC4)ccc3C2=O)C(=O)N1 (stereo partly specified)
IC50 [1]: 2.8 nM
viability at 1 µM (HepG2): 46%
remaining at 24 h [2]: 57%

SMILES: Cc1ncsc1-c1ccc(CNC(=O)[C@@H]2C[C@@H](O)CN2C(=O)[C@@H](NC(=O)CCOCCOCCOCCOCCC(=O)N2CCC(NC(=O)Nc3ccc(OC(F)(F)F)cc3)CC2)C(C)(C)C)cc1
IC50 [1]: 10 nM

SMILES: O=C1CCC(N2C(=O)c3cccc(N4CCN(CC5CCN(C(=O)CCCCCCCCNC(=O)c6ccc(O[C@H]7CC[C@H](NC(=O)Nc8ccc(OC(F)(F)F)cc8)CC7)cc6)CC5)CC4)c3C2=O)C(=O)N1 (stereo partly specified)
IC50 [1]: 1.8 nM
viability at 1 µM (HepG2): 24%

SMILES: O=C1CCC(N2Cc3ccc(N4CCN(CC5CCN(C(=O)CCCCCCCCNC(=O)c6ccc(O[C@H]7CC[C@H](NC(=O)Nc8ccc(OC(F)(F)F)cc8)CC7)cc6)CC5)CC4)cc3C2=O)C(=O)N1 (stereo partly specified)
IC50 [1]: 4.8 nM
viability at 1 µM (HepG2): 7%
half-life [3]: 7.1 h
Tmax [4]: 0.33 h
Cmax [5]: 3500 ng/mL
AUC(0-inf) [6]: 31000 ng·h/mL
MRT inf [7]: 9.3 h

SMILES: O=C1CCC(N2C(=O)c3cccc(N4CCN(C(=O)CCCCCCCCNC(=O)c5ccc(O[C@H]6CC[C@H](NC(=O)Nc7ccc(OC(F)(F)F)cc7)CC6)cc5)CC4)c3C2=O)C(=O)N1 (stereo partly specified)
IC50 [1]: 0.9 nM
viability at 1 µM (HepG2): -47%

SMILES: O=C1CCC(N2C(=O)c3ccc(N4CCN(CC5CCN(C(=O)CCCCCCCCNC(=O)c6ccc(O[C@H]7CC[C@H](NC(=O)Nc8ccc(OC(F)(F)F)cc8)CC7)cc6)CC5)CC4)cc3C2=O)C(=O)N1 (stereo partly specified)
inhibition [8]: Active
inhibition (HEK293T [9]): Active
IC50 [1]: 210 nM
half-life [10]: > 24 h
half-life [11]: > 2 h
CLint scaled [12]: 43 mL/min/kg
Stability [13]: > 99%
inhibition [14]: Active
Activity (HEK-293T [15]): Active
Activity (HEK-293T [16]): Active
viability at 1 µM (HepG2): -38%
half-life [3]: 12 h
Tmax [4]: 6.7 h
Cmax [5]: 2800 ng/mL
AUC(0-inf) [6]: 58000 ng·h/mL
MRT inf [7]: 17 h
Activity [17]: Active
Activity [18]: Active

SMILES: O=C(Nc1ccc(OC(F)(F)F)cc1)N[C@H]1CC[C@H](Oc2ccc(C(=O)O)cc2)CC1
inhibition (HEK293T [19]): inactive
inhibition [20]: inactive
inhibition [21]: inactive

SMILES: O=C1CCC(N2C(=O)c3cc(F)c(N4CCN(C(=O)CCCCCCCCNC(=O)c5ccc(O[C@H]6CC[C@H](NC(=O)Nc7ccc(OC(F)(F)F)cc7)CC6)cc5)CC4)cc3C2=O)C(=O)N1 (stereo partly specified)
IC50 [1]: 2.2 nM
viability at 1 µM (HepG2): -6%

Now from value to compound, other results behind:

IC50 [1]: 9.9 nM
half-life [10]: > 24 h
half-life [11]: 0.517 h
CLint scaled [12]: 170 mL/min/kg
Stability [13]: > 99%
SMILES: O=C1CCC(N2C(=O)c3ccc(N4CCN(C(=O)CCCCCCCCNC(=O)c5ccc(O[C@H]6CC[C@H](NC(=O)Nc7ccc(OC(F)(F)F)cc7)CC6)cc5)CC4)cc3C2=O)C(=O)N1 (stereo partly specified)

IC50 [1]: 4.6 nM
half-life [3]: 5.8 h
Tmax [4]: 0.33 h
Cmax [5]: 3000 ng/mL
AUC(0-inf) [6]: 61000 ng·h/mL
MRT inf [7]: 4 h
SMILES: O=C1CCC(N2C(=O)c3ccc(N4CCN(CC5CCN(C(=O)CCCCCCCCC(=O)N6CCC(NC(=O)Nc7ccc(OC(F)(F)F)cc7)CC6)CC5)CC4)cc3C2=O)C(=O)N1 (stereo unspecified)

IC50 [1]: 20 nM
SMILES: O=C1CCC(N2C(=O)c3cc(F)c(N4CCN(CC5CCN(C(=O)CCCCCCCCNC(=O)c6ccc(O[C@H]7CC[C@H](NC(=O)Nc8ccc(OC(F)(F)F)cc8)CC7)cc6)CC5)CC4)cc3C2=O)C(=O)N1 (stereo partly specified)

DC50 [22]: > 1000 nM
degraded at 24 h [23]: ~100%
SMILES: O=C(COc1cccc2c1C(=O)N(C1CCC(=O)NC1=O)C2=O)NCCOCCOCCOCCCNC(=O)c1ccc(O[C@H]2CC[C@H](NC(=O)Nc3ccc(OC(F)(F)F)cc3)CC2)cc1 (stereo partly specified)

degraded at 24 h [23]: ~100%
half-life [10]: 1.1 h
half-life [11]: 0.00983 h
CLint scaled [12]: 9200 mL/min/kg
Stability [13]: 90%
inhibition [20]: inactive
inhibition [21]: inactive
SMILES: O=C(COc1cccc2c1C(=O)N(C1CCC(=O)NC1=O)C2=O)NCCOCCOCCOCCOCCNC(=O)c1ccc(O[C@H]2CC[C@H](NC(=O)Nc3ccc(OC(F)(F)F)cc3)CC2)cc1 (stereo partly specified)
inhibition (HEK293T [19]): inactive

IC50 [1]: 4.6 nM
SMILES: O=C1CCC(N2C(=O)c3cccc(NCCOCCOCCOCCOCCC(=O)N4CCC(NC(=O)Nc5ccc(OC(F)(F)F)cc5)CC4)c3C2=O)C(=O)N1 (stereo unspecified)
